# Measurements taken from ChEMBL document CHEMBL3045861, “Synthesis and insecticidal activity of N-tert-butyl-N,N'-diacylhydrazines containing 1,2,3-thiadiazoles” (2011).
# Tests used:
# Assay type in all cases: functional
# Plutella xylostella [1] = experiment: Insecticidal activity against Plutella xylostella (diamondback moth) second-instar larvae grown on compound treated fresh cabbage leaves assessed as insect mortality at 200 ug/mL measured 96 hr post compound exposure by leaf film feeding method
# Culex pipiens pallens [2] = experiment: Insecticidal activity against Culex pipiens pallens (mosquito) fourth-instar larvae assessed as insect mortality at 2 ug/mL measured 96 hr post compound exposure
# Culex pipiens pallens [3] = experiment: Insecticidal activity against Culex pipiens pallens (mosquito) fourth-instar larvae assessed as insect mortality at 0.5 ug/mL measured 96 hr post compound exposure
# Culex pipiens pallens [4] = experiment: Insecticidal activity against Culex pipiens pallens (mosquito) fourth-instar larvae assessed as insect mortality at 1 ug/mL measured 96 hr post compound exposure
# Plutella xylostella [5] = experiment: Insecticidal activity against Plutella xylostella (diamondback moth) second-instar larvae grown on compound treated fresh cabbage leaves assessed as insect mortality at 400 ug/mL measured 96 hr post compound exposure by leaf film feeding method
# Plutella xylostella [6] = experiment: Insecticidal activity against Plutella xylostella (diamondback moth) second-instar larvae grown on compound treated fresh cabbage leaves assessed as insect mortality measured 96 hr post compound exposure by leaf film feeding method
smiles,measurement,setting,value
Cc1nnsc1C(=O)N(NC(=O)c1ccc([N+](=O)[O-])cc1)C(C)(C)C,mortality at 200 µg/mL,Plutella xylostella [1],33%
same,mortality at 2 µg/mL,Culex pipiens pallens [2],30%
Cc1nnsc1C(=O)N(NC(=O)c1cccc([N+](=O)[O-])c1)C(C)(C)C,mortality at 200 µg/mL,Plutella xylostella [1],34%
same,mortality at 2 µg/mL,Culex pipiens pallens [2],10%
Cc1nnsc1C(=O)N(NC(=O)c1ccccc1[N+](=O)[O-])C(C)(C)C,mortality at 200 µg/mL,Plutella xylostella [1],16%
same,mortality at 2 µg/mL,Culex pipiens pallens [2],20%
Cc1nnsc1C(=O)N(NC(=O)c1cccc(C(F)(F)F)c1)C(C)(C)C,mortality at 0.5 µg/mL,Culex pipiens pallens [3],0%
same,mortality at 200 µg/mL,Plutella xylostella [1],32%
same,mortality at 2 µg/mL,Culex pipiens pallens [2],100%
same,mortality at 1 µg/mL,Culex pipiens pallens [4],100%
Cc1nnsc1C(=O)N(NC(=O)c1ccc(C(F)(F)F)cc1)C(C)(C)C,mortality at 200 µg/mL,Plutella xylostella [1],13%
same,mortality at 2 µg/mL,Culex pipiens pallens [2],40%
Cc1nnsc1C(=O)N(NC(=O)c1ccc(Cl)cc1)C(C)(C)C,mortality at 2 µg/mL,Culex pipiens pallens [2],20%
same,mortality at 400 µg/mL,Plutella xylostella [5],43%
Cc1nnsc1C(=O)N(NC(=O)c1cccc(Cl)c1)C(C)(C)C,mortality at 200 µg/mL,Plutella xylostella [1],25%
same,mortality at 2 µg/mL,Culex pipiens pallens [2],0%
Cc1nnsc1C(=O)N(NC(=O)c1ccccc1Cl)C(C)(C)C,mortality at 200 µg/mL,Plutella xylostella [1],24%
same,mortality at 2 µg/mL,Culex pipiens pallens [2],20%
COc1cccc(C(=O)NN(C(=O)c2snnc2C)C(C)(C)C)c1,mortality at 2 µg/mL,Culex pipiens pallens [2],10%
same,mortality at 400 µg/mL,Plutella xylostella [5],10%
COc1ccc(C(=O)NN(C(=O)c2snnc2C)C(C)(C)C)cc1,mortality at 2 µg/mL,Culex pipiens pallens [2],10%
same,mortality at 400 µg/mL,Plutella xylostella [5],28%
COc1ccccc1C(=O)NN(C(=O)c1snnc1C)C(C)(C)C,mortality at 200 µg/mL,Plutella xylostella [1],29%
same,mortality at 2 µg/mL,Culex pipiens pallens [2],10%
Cc1ccc(C(=O)NN(C(=O)c2snnc2C)C(C)(C)C)cc1,mortality at 200 µg/mL,Plutella xylostella [1],37%
same,mortality at 2 µg/mL,Culex pipiens pallens [2],0%
Cc1cccc(C(=O)NN(C(=O)c2snnc2C)C(C)(C)C)c1,mortality at 200 µg/mL,Plutella xylostella [1],12%
same,mortality at 2 µg/mL,Culex pipiens pallens [2],20%
Cc1ccccc1C(=O)NN(C(=O)c1snnc1C)C(C)(C)C,mortality at 0.5 µg/mL,Culex pipiens pallens [3],30%
same,mortality at 200 µg/mL,Plutella xylostella [1],68%
same,mortality at 2 µg/mL,Culex pipiens pallens [2],100%
same,mortality at 1 µg/mL,Culex pipiens pallens [4],100%
Cc1nnsc1C(=O)NN(C(=O)c1ccc([N+](=O)[O-])cc1)C(C)(C)C,mortality at 200 µg/mL,Plutella xylostella [1],5%
same,mortality at 2 µg/mL,Culex pipiens pallens [2],10%
Cc1nnsc1C(=O)NN(C(=O)c1cccc([N+](=O)[O-])c1)C(C)(C)C,mortality at 2 µg/mL,Culex pipiens pallens [2],30%
same,mortality at 400 µg/mL,Plutella xylostella [5],23%
Cc1nnsc1C(=O)NN(C(=O)c1ccccc1[N+](=O)[O-])C(C)(C)C,mortality at 2 µg/mL,Culex pipiens pallens [2],10%
same,mortality at 400 µg/mL,Plutella xylostella [5],45%
Cc1nnsc1C(=O)NN(C(=O)c1ccc(C(F)(F)F)cc1)C(C)(C)C,mortality at 200 µg/mL,Plutella xylostella [1],5%
same,mortality at 2 µg/mL,Culex pipiens pallens [2],30%
Cc1nnsc1C(=O)NN(C(=O)c1cccc(C(F)(F)F)c1)C(C)(C)C,mortality at 200 µg/mL,Plutella xylostella [1],46%
same,mortality at 2 µg/mL,Culex pipiens pallens [2],40%
Cc1nnsc1C(=O)NN(C(=O)c1ccccc1C(F)(F)F)C(C)(C)C,mortality at 200 µg/mL,Plutella xylostella [1],15%
same,mortality at 2 µg/mL,Culex pipiens pallens [2],10%
Cc1nnsc1C(=O)NN(C(=O)c1ccc(Cl)cc1)C(C)(C)C,mortality at 0.5 µg/mL,Culex pipiens pallens [3],10%
same,mortality at 200 µg/mL,Plutella xylostella [1],25%
same,mortality at 2 µg/mL,Culex pipiens pallens [2],100%
same,mortality at 1 µg/mL,Culex pipiens pallens [4],100%
Cc1nnsc1C(=O)NN(C(=O)c1cccc(Cl)c1)C(C)(C)C,mortality at 200 µg/mL,Plutella xylostella [1],0%
same,mortality at 2 µg/mL,Culex pipiens pallens [2],30%
Cc1nnsc1C(=O)NN(C(=O)c1ccccc1Cl)C(C)(C)C,mortality at 200 µg/mL,Plutella xylostella [1],79%
same,mortality at 2 µg/mL,Culex pipiens pallens [2],10%
same,LC50,Plutella xylostella [6],28 µg/mL
COc1cccc(C(=O)N(NC(=O)c2snnc2C)C(C)(C)C)c1,mortality at 200 µg/mL,Plutella xylostella [1],37%
same,mortality at 2 µg/mL,Culex pipiens pallens [2],20%
COc1ccc(C(=O)N(NC(=O)c2snnc2C)C(C)(C)C)cc1,mortality at 200 µg/mL,Plutella xylostella [1],25%
same,mortality at 2 µg/mL,Culex pipiens pallens [2],10%
COc1ccccc1C(=O)N(NC(=O)c1snnc1C)C(C)(C)C,mortality at 2 µg/mL,Culex pipiens pallens [2],10%
same,mortality at 400 µg/mL,Plutella xylostella [5],30%
Cc1cccc(C(=O)N(NC(=O)c2snnc2C)C(C)(C)C)c1,mortality at 200 µg/mL,Plutella xylostella [1],0%
same,mortality at 2 µg/mL,Culex pipiens pallens [2],20%
Cc1ccc(C(=O)N(NC(=O)c2snnc2C)C(C)(C)C)cc1,mortality at 200 µg/mL,Plutella xylostella [1],15%
same,mortality at 2 µg/mL,Culex pipiens pallens [2],10%
Cc1ccccc1C(=O)N(NC(=O)c1snnc1C)C(C)(C)C,mortality at 200 µg/mL,Plutella xylostella [1],8%
same,mortality at 2 µg/mL,Culex pipiens pallens [2],20%
CCc1ccc(C(=O)NN(C(=O)c2cc(C)cc(C)c2)C(C)(C)C)cc1 [TEBUFENOZIDE],mortality at 0.5 µg/mL,Culex pipiens pallens [3],60%
same,mortality at 200 µg/mL,Plutella xylostella [1],40%
same,mortality at 2 µg/mL,Culex pipiens pallens [2],100%
same,LC50,Plutella xylostella [6],26 µg/mL
same,mortality at 1 µg/mL,Culex pipiens pallens [4],100%
